As usually defined, the IC50 is the concentration at which inhibition is half-maximal. High values mean a need for much substance, low ones inhibition by little substance.

The target of one experiment is T1, Type-1 angiotensin II receptor (Bos taurus, UniProt P25104).
T1 sequence (P25104 whole entry): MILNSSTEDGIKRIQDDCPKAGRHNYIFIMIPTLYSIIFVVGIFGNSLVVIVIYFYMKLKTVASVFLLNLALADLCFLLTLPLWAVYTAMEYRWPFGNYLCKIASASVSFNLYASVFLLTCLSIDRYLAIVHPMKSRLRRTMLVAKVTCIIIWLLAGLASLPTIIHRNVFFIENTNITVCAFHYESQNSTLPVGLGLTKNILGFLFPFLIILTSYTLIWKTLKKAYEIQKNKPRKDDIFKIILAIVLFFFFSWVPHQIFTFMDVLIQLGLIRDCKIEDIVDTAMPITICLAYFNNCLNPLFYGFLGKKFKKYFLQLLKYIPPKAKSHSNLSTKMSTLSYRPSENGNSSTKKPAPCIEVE
Kind of experiment: Binding affinity for angiotensin II receptor of bovine adrenal cortex.
Conditions: not given
It counts as tissue-based.
For the compound `CCCOc1nc2ccc(C)cn2c(=O)c1Cc1ccc(-c2ccccc2-c2nn[nH]n2)cc1`, the IC50 was 1.6 µM.

For the compound `COc1nc2ccccn2c(=O)c1Cc1ccc(-c2ccccc2-c2nn[nH]n2)cc1`, the IC50 was 14 µM.

`CCCCOc1nc2ccccn2c(=O)c1Cc1ccc(-c2ccccc2-c2nnn[nH]2)cc1`: the half-inhibitory concentration (IC50) stood at 2.4 µM.

In turn, `CCCOc1nc2c(C)cccn2c(=O)c1Cc1ccc(-c2ccccc2-c2nn[nH]n2)cc1` came in with an IC50 of 6 µM.

`CCCOc1nc2cc(C)ccn2c(=O)c1Cc1ccc(-c2ccccc2-c2nn[nH]n2)cc1` came in with an IC50 of 4 µM.

In the case of `CCOC(=O)c1ccc2nc(OC(C)C)c(Cc3ccc(-c4ccccc4-c4nn[nH]n4)cc3)c(=O)n2c1`, the IC50 is 4.9 µM.

For the compound `CC(C)COc1nc2ccc(C(C)O)cn2c(=O)c1Cc1ccc(-c2ccccc2-c2nn[nH]n2)cc1` (centres undefined), the IC50 worked out at 1 µM.

In turn, `Cc1ccc2nc(OCC(C)C)c(Cc3ccc(-c4ccccc4-c4nnn[nH]4)cc3)c(=O)n2c1` registered an IC50 of 4 µM.

For `CCOc1nc2ccccn2c(=O)c1Cc1ccc(-c2ccccc2-c2nnn[nH]2)cc1`, the IC50 is 4.4 µM.

`Cc1ccc2nc(OC(C)C)c(Cc3ccc(-c4ccccc4-c4nnn[nH]4)cc3)c(=O)n2c1` yielded a half-inhibitory concentration (IC50) of 6 µM.

`CC(C)Oc1nc2ccc(C(=O)O)cn2c(=O)c1Cc1ccc(-c2ccccc2-c2nnn[nH]2)cc1`: the IC50 was found to be 69.3 µM.

In the case of `CCCOc1nc2ccccn2c(=O)c1Cc1ccc(-c2ccccc2-c2nn[nH]n2)cc1`, the IC50 came out at 0.25 µM.

Consider `CCCCc1nc(Cl)c(CO)n1Cc1ccc(-c2ccccc2-c2nn[nH]n2)cc1` [LOSARTAN], for which the IC50 worked out at 0.3 µM.

The next experiment relates to Rattus norvegicus. The experiment is described as follows: Tested for drop in blood pressure over 5 hr when administered orally at 10 mg/kg in high renin rat hypertension model. It counts as functional. As to conditions: route oral.
`CCCOc1nc2ccccn2c(=O)c1Cc1ccc(-c2ccccc2-c2nn[nH]n2)cc1` returned a Blood pressure of 50 mmHg.

The values are drawn from ChEMBL document CHEMBL1127870, “Substituted 4H-pyrido[1,2-a]pyrimidin-4-one angiotensin II receptor antagonists” (Bioorg Med Chem Lett, 1994).
